Laboratory results taken from patent publication EP0034754A1, “2-((3-amino-2-hydroxy-propoxy)-styryl) isoxazoles, process for their preparation and pharmaceutical compositions containing them” (BASF Aktiengesellschaft, priority 1980, dated 1981).
Where two headings read alike, the source gives them in different places.

Experiments:
[1] = system: Isoproterenol-Tachycardie; experiment: ß-sympatholytic effect: inhibition of isoproterenol-induced tachycardia in despinalised rats; assay type: in vivo; conditions: Rattus norvegicus, iv, 5 min, read-out: ß-Sympatholytische Wirkung Ratte i.v. ED 50 %
Experimental: ß-sympatholytische Wirkung: • An despinalisierten Ratten (Stamm: Sprague Dawley, männlich, Gewicht 200 bis 240 g) verursacht Isoproterenol (0,1/ug/kg intravenös) Herfrequenzsteigerungen um durchschnittlich 121 + 2,1 min bei einer Ausgangsfrequenz von 268 + 3,9 min^-1 (Anzahl der Tiere N = 100). ß-Sympatholytika hemmen diese Frequenzsteigerungen spezifisch und dosisabhängig. Die Applikation der getesteten Substanzen erfolgt 5 min vor der Isoproterenolgabe.
Als ED 50 % werden die Dosen ermittelt, welche die Isoproterenol-Tachycardie um 50 % hemmen.
Als Referenzsubstanz dient das bekannte ß-Sympatholytikum Propranolol.

mittleren Carotisdruck = experiment: Blood-pressure-lowering effect in the anaesthetised rat (urethane), carotid pressure; assay type: in vivo, Ratte; conditions: i.v.; for ED20: Rattus norvegicus, iv, Sprague Dawley rats under urethane anaesthesia, dose lowering mean carotid pressure by 20 %, read-out: Blutdrucksenkende Wirkung Ratte i.v. ED 20 %
Source text: Blutdrucksenkende Wirkung an der narkotisierten Ratte: • Zur Feststellung der blutdrucksenkenden Wirkung erhalten männliche Ratten (Stamm: Sprague Dawley, Gewicht: 230 bis 280 g) in Urethan-Narkose (1,78 g/kg intraperitoneal) die Prüfsubstanzen intravenös appliziert. Die Messung des Blutdruckes in der Aorta carotis erfolgt über Statham--Transducer.
Als ED 20 % wird die Dosis ermittelt, welche den mittleren Carotisdruck um 20 % senkt.

in vivo = conditions: for LD50: mouse, ip
[2] = despinalised Sprague Dawley rats, i.v., given 5 min before isoproterenol 0,1 µg/kg i.v., dose inhibiting tachycardia by 50 %

| SMILES | ED50 [1, 2] [mg/kg] | ED20 (mittleren Carotisdruck) [mg/kg] | selectivity ratio (in vivo) | LD50 (in vivo) [mg/kg] | ED50 [1] [mg/kg] | Blutdrucksenkende Wirkung (mittleren Carotisdruck; rat, up to a dose of 2,15 mg/kg) |
| --- | --- | --- | --- | --- | --- | --- |
| COCc1cc(C=Cc2ccccc2OCC(O)CNC(C)(C)C)on1 (stereo not drawn) [Beispiel 4, 3-Methoxymethyl-5-[2-(2-hydroxY-3-tert.-butylamino-prop-oxy)-styryl]-isoxazol] | 0.00742 | 1 | 13500 | 100 |  |  |
| COCc1cc(C=Cc2ccccc2OCC(O)CNC2CC2)on1 (stereo not drawn) [Beispiel 9, 5-[2-(2-Hydroxy-3-cyclopropylamino-propoxy)-styryl]-3-methoxymethyl-isoxazol] | 0.01 |  | 12100 | 121 |  |  |
| Cc1noc(C=Cc2ccccc2OCC(O)CNC(C)(C)C)c1Cl (stereo not drawn) [Beispiel 16, 4-Chlor-3-methyl-5-[2-(2-hydroxy-3-tert.-butylamino-prop-oxy)-styryl]-isoxazol] | 0.01 | 1 | 14700 | 147 |  |  |
| COCc1cc(C=Cc2ccccc2OCC(O)CNC(C)C)on1 (stereo not drawn) [Beispiel 3, 3-Methoxymethyl-5-[2-(2-hydroxy-3-isopropylamino-propoxy)--styryl]-isoxazol] | 0.0064 | 1 | 18900 | 121 |  |  |
| Cc1noc(C=Cc2ccccc2OCC(O)CNC(C)C)c1Cl (stereo not drawn) [Beispiel 17, 4-Chlor-3-methyl-5-[2-(2-hydroxy-3-isopropylamino-prop-oxy)-styryl]-isoxazol] | 0.00681 | 1.95 | 75000 | 511 |  |  |
| CC(C)NCC(O)COc1cccc2ccccc12 (stereo not drawn) [Propranolol, reference compound] |  |  |  |  | 0.0127 | senkt den Blutdruck bis zu einer Dosis von 2,15 mg/kg nicht |
